# Laboratory results: US20080188481A1 (priority 2002, published 2008)
# Test system: HIV-1 single-round infectious reporter virus
# Assay: Single-round infectious HIV-1 luciferase reporter virus infection of HeLa CD4 cells (antiviral EC50)
# Type: cell-based
# Conditions: Human immunodeficiency virus 1, HeLa, 72 h, read-out: EC50 Group from Table 1
# In short: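 HeLa CD4 cells infected with env-pseudotyped, luciferase-reporter single-round HIV-1 (MOI ~0.01) in presence of compound (final ≤10 μM), harvested 72 h at 37 °C. Luciferase luminescence expressed as percent inhibition versus no-compound control; EC50 from 10-concentration four-parameter logistic fit.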
row,SMILES,EC50
1,"COc1cnc(-n2cncn2)c2[nH]cc(C(=O)C(=O)N3CCC(=C(c4ccccc4)c4nnc(C)o4)CC3)c12 [Example 79, 1-[4-(1-Phenyl-1-(5-methyl-1,3,4-oxadiazol-2-yl)-methylene)-piperidin-1-yl]-2-[4-methoxy-7-(1,2,4-triazol-1-yl)-6-azaindol-3-yl]-ethane-1,2-dione]",< 1000 nM
2,COc1cccc(C(=C2CCN(C(=O)C(=O)c3c[nH]c4c(OC)ncc(OC)c34)CC2)c2ccccc2)c1 [Example 58],< 1000 nM
3,"COc1ncc(OC)c2c(C(=O)C(=O)N3CCC(=C(c4ccccc4)c4nnc(C)o4)CC3)c[nH]c12 [Example 52, 1-[4-(1-Phenyl-1-(5-methyl-1,3,4-oxadiazol-2-yl)-methylene)-piperidin-1-yl]-2-(4,7-dimethoxy-6-azaindol-3-yl)-ethane-1,2-dione]",< 1000 nM
4,"N#CC(=C1CCN(C(=O)C(=O)c2c[nH]c3c(-c4ncco4)ccnc23)CC1)c1ccccc1 [Example 103, {1-[2-(7-Oxazol-2-yl-1H-pyrrolo[3,2-b]pyridin-3-yl)-2-oxo-acetyl]-piperidin-4-ylidene}-phenyl-acetonitrile]",< 1000 nM
5,"N#CC(=C1CCN(C(=O)C(=O)c2c[nH]c3c(-n4nccn4)ccnc23)CC1)c1ccccc1 [Example 105, {1-[2-Oxo-2-(7-[1,2,3]triazol-2-yl-1H-pyrrolo[3,2-b]pyridin-3-yl)-acetyl]-piperidin-4-ylidene}-phenyl-acetonitrile]",< 1000 nM
6,CC1CN(C(=O)C(=O)c2c[nH]c3ccccc23)CC/C1=C\c1ccccc1 (stereo not shown) [Example 14],1000 to 5000 nM
7,COc1ncc(OC)c2c(C(=O)C(=O)N3CCC(=C(Cl)c4ccccc4)CC3)c[nH]c12 [Example 5],< 1000 nM
8,CCOC(=O)c1cncc(C(=C2CCN(C(=O)C(=O)c3c[nH]c4c(-n5cnc(C)n5)ncc(OC)c34)CC2)c2ccccc2)c1 [Example 121],< 1000 nM
9,COc1ncc(OC)c2c(C(=O)C(=O)N3CCC(=C(C#N)c4nc5ccccc5[nH]4)CC3)c[nH]c12 [Example 23],< 1000 nM
10,"COc1cnc(-n2ccnn2)c2[nH]cc(C(=O)C(=O)N3CCC(=C(c4ccccc4)c4nnc(C)o4)CC3)c12 [Example 73, 1-[4-(1-Phenyl-1-(5-methyl-1,3,4-oxadiazol-2-yl)-methylene)-piperidin-1-yl]-2-[4-methoxy-7-(1,2,3-triazol-1-yl)-6-azaindol-3-yl]-ethane-1,2-dione]",< 1000 nM
11,COc1ncc(OC)c2c(C(=O)C(=O)N3CCC(=C(C(N)=O)c4ccccc4)CC3)c[nH]c12 [Example 47],< 1000 nM
12,"COc1cnc(-n2cnc(C)n2)c2[nH]cc(C(=O)C(=O)N3CCC(=C(c4ccccc4)c4nnc(C(C)(C)C)o4)CC3)c12 [Example 134, 1-[4-(1-Phenyl-1-(5-tert-butyl-1,3,4-oxadiazol-2-yl)-methylene)-piperidin-1-yl]-2-[4-methoxy-7-(3-methyl-1,2,4-triazol-1-yl)-6-azaindol-3-yl]-ethane-1,2-dione]",< 1000 nM
13,"COc1ncc(OC)c2c(C(=O)C(=O)N3CCC(=C(C#C[Si](C)(C)C)c4ccccc4)CC3)c[nH]c12 [Example 112, 1-[4-(1-Phenyl-1-(2-trimethylsilylethyn-1-yl)-methylene)-piperidin-1-yl]-2-(4,7-dimethoxy-6-azaindol-3-yl)-ethane-1,2-dione]",< 1000 nM
14,COc1cnc(-c2cnccn2)c2[nH]cc(C(=O)C(=O)N3CCC(=C(C(N)=O)c4ccccc4)CC3)c12 [Example 49],< 1000 nM
15,COc1cnc(Cl)c2[nH]cc(C(=O)C(=O)N3CCC(=C(F)c4ccccc4)CC3)c12 [Example 21],< 1000 nM
16,COc1cnc(-n2ccc(C)n2)c2[nH]cc(C(=O)C(=O)N3CCC(=C(c4ccccc4)c4cnccn4)CC3)c12 [Example 96],< 1000 nM
17,CCOC(=O)c1cc(C(=C2CCN(C(=O)C(=O)c3c[nH]c4c(-n5cnc(C)n5)ncc(OC)c34)CC2)c2ccccc2)n[nH]1 [Example 87],< 1000 nM
18,COc1cnc(-n2ccc(C)n2)c2[nH]cc(C(=O)C(=O)N3CCC(=C(c4ccccc4)c4csc(C)n4)CC3)c12 [Example 100],< 1000 nM
19,"COc1ncc(OC)c2c(C(=O)C(=O)N3CCC(=C(c4ccccc4)c4nccs4)CC3)c[nH]c12 [Example 49a, 1-[4-(1-Phenyl-1-(thiazol-2-yl)-methylene)-piperidin-1-yl]-2-(4,7-dimethoxy-6-azaindol-3-yl)-ethane-1,2-dione]",< 1000 nM
20,"COc1cnc(-c2cnccn2)c2[nH]cc(C(=O)C(=O)N3CCC(=C(c4ccccc4)c4cnccn4)CC3)c12 [Example 70, 1-[4-(1-Phenyl-1-(pyrazinyl)-methylene)-piperidin-1-yl]-2-(4-methoxy-7-pyrazinyl-6-azaindol-3-yl)-ethane-1,2-dione]",< 1000 nM
21,O=C(C(=O)N1CCC(=Cc2ccccc2)CC1)c1c[nH]c2c(-c3ncon3)ccc(F)c12 [Example 6],< 1000 nM
22,COc1ncc(OC)c2c(C(=O)C(=O)N3CCC(=C(c4ccccc4)c4ccc(C#N)cc4)CC3)c[nH]c12 [Example 59],< 1000 nM
